Measurements from ChEMBL document CHEMBL5150017, “Mechanism of Action and Structure-Activity Relationship of α-Conotoxin Mr1.1 at the Human α9α10 Nicotinic Acetylcholine Receptor” (J Med Chem, 2022).

Experiments:
[1] = target: Neuronal acetylcholine receptor; alpha9/alpha10 (Homo sapiens, UniProt Q9GZZ6+Q9UGM1); assay: Antagonist activity at human alpha9alpha10 nAChR expressed in Xenopus laevis oocytes assessed as inhibition of ACh-induced current amplitude at -80 mV holding potential by two-electrode voltage clamp method; format: cell-based, Oocyte
[2] = target: T1, Neuronal acetylcholine receptor; alpha9/alpha10 (Homo sapiens) (UniProt Q9UGM1+Q9GZZ6); assay: Antagonist activity at human alpha9alpha10 nAChR expressed in Xenopus laevis oocytes assessed as inhibition of ACh-induced current amplitude at -80 mV holding potential at 10 uM by two-electrode voltage clamp method; format: cell-based; settings: Oocyte
[3] = target: T1, Neuronal acetylcholine receptor; alpha9/alpha10 (Homo sapiens); assay: Antagonist activity at human alpha9alpha10 nAChR expressed in Xenopus laevis oocytes assessed as inhibition of ACh-induced current amplitude at -80 mV holding potential at 1 uM by two-electrode voltage clamp method; format: cell-based; settings: Oocyte

Sequence of Neuronal acetylcholine receptor; alpha9/alpha10 (Q9UGM1 whole entry): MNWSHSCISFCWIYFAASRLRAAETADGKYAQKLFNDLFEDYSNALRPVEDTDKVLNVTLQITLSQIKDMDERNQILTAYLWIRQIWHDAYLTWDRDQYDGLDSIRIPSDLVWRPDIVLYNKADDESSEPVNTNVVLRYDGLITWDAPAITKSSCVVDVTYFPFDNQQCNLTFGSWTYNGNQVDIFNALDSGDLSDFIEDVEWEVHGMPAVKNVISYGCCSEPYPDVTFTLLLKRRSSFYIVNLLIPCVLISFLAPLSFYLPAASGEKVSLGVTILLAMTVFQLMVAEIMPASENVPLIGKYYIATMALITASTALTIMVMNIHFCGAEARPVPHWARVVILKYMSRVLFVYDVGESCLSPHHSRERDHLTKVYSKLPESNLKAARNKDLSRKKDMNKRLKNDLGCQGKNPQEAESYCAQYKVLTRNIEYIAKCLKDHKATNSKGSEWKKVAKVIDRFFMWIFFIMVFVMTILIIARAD
Sequence of Neuronal acetylcholine receptor; alpha9/alpha10 (Q9GZZ6 whole entry): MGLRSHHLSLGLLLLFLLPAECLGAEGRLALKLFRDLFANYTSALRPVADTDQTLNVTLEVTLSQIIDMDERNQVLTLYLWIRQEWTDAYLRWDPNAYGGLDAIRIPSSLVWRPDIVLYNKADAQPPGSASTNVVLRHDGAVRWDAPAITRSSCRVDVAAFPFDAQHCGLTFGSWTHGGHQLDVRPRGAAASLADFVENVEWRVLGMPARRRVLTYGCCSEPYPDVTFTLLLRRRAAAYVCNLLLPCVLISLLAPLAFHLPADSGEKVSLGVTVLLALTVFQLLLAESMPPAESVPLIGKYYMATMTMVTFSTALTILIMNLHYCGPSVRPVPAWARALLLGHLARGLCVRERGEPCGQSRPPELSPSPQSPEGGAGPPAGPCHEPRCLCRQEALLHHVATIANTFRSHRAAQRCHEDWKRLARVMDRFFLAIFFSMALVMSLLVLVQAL

Structure (SMILES)	IC50 [1] [nM]	inhibition [2] [%]	inhibition [3] [%]
N=C(N)NCCC[C@H](NC(=O)[C@H](CS)NC(=O)[C@H](CCCNC(=N)N)NC(=O)[C@H](Cc1ccc(O)cc1)NC(=O)[C@H](CCCNC(=N)N)NC(=O)[C@H](CS)NC(=O)[C@H](CCCNC(=N)N)NC(=O)[C@@H]1CCCN1C(=O)[C@H](CC(=O)O)NC(=O)[C@H](CO)NC(=O)[C@H](CS)NC(=O)[C@H](CS)NC(=O)CN)C(=O)O	500		
CC[C@H](C)[C@@H]1NC(=O)[C@H](CCC(=O)O)NC(=O)[C@@H]2CCCN2C(=O)[C@H](Cc2cnc[nH]2)NC(=O)[C@H](CC(=O)O)NC(=O)[C@H](Cc2ccc(O)cc2)NC(=O)[C@H](CC(N)=O)NC(=O)[C@@H]2CSSC[C@H](NC(=O)CN)C(=O)N[C@@H](CSSC[C@@H](C(N)=O)NC1=O)C(=O)N[C@@H](CO)C(=O)N[C@@H](CC(=O)O)C(=O)N1CCC[C@H]1C(=O)N[C@@H](CCCNC(=N)N)C(=O)N2		0	20
